Earlier results on 38 compounds are cited in article PMC9788431, “Combination of Docking-Based and Pharmacophore-Based Virtual Screening Identifies Novel Agonists That Target the Urotensin Receptor” (Molecules, 2022).

Usually IC50 stands for the midpoint of a concentration-inhibition curve. One may read the EC50 as the midpoint of the concentration-response curve.

Series [1] has as its target T1, UT receptor (Homo sapiens, UniProt Q9UKP6).
T1 construct: SNAP-tag; expressed in transfected cells; host or cells: 293A8 (HEK293A stably transfected with the UT receptor); inferred, the calcium-assay paragraph names no cells
T1 sequence (Q9UKP6 1-389): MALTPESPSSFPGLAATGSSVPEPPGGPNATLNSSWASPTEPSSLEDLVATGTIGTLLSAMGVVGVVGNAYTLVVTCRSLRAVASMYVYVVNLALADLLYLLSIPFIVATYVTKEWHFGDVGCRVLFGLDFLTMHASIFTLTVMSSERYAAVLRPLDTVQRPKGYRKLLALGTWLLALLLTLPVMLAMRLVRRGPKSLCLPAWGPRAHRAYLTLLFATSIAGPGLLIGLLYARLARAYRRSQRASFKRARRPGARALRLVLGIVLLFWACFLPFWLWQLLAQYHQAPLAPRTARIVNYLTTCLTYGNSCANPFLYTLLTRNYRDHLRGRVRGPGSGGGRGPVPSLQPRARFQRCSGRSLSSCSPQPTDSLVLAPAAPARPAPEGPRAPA
Details: method as in ChEMBL database and others. The conditions noted are these: antagonist; Table S1 benchmarking ligands; ref ChEMBL database and others; cited from earlier work.

In series [2] the target is T1, UT receptor. The conditions noted are these: agonist; Table S1 benchmarking ligands; ref ChEMBL database and others; cited from earlier work.

Each structure is given as a SMILES string. Where “and” joins values, the source holds several entries; their conditions need not be identical. Identical values can stand only once. Positions of bridges follow the written chain, without caps; N, C: chain ends. Non-standard residues stand in square brackets, D forms with d. Residues, ends and D or L forms follow the SMILES beside them. Phe(4-I) = N[C@@H](Cc1ccc(I)cc1)C(=O)O; dTle = CC(C)(C)[C@@H](N)C(=O)O

Turning to `CN(CC(=O)N1CCCCC1CN1CCCC1)c1ccc(Cl)c(Cl)c1` (centres unmarked) [CHEMBL254154], on UT receptor [1], the IC50 is 631 nM.
In the case of `CN(C)CCCOc1ccc(CN2CC[C@H](NC(=O)c3ccc(Cl)c(Cl)c3)C2)cc1` [CHEMBL366221], the IC50 on UT receptor [1] was 170 nM.
As to `O=C(N[C@H]1CCN(Cc2ccc(OC3CCNCC3)c(Br)c2)C1)c1ccc(Cl)c(Cl)c1` [CHEMBL495075], the IC50 at UT receptor [1] was 4 nM.
Turning to `COc1ccc([C@@H](CCCN(C)S(=O)(=O)c2cccs2)N2Cc3c(cccc3N3CCNCC3)C2=O)cc1OC` [CHEMBL565416], the IC50 on UT receptor [1] is 410 nM.
Turning to `COc1ccc([C@H](CCCNS(=O)(=O)c2cccs2)N2C(=O)c3cccc(N4CCN([C@H](C)c5ccccc5)CC4)c3C2=O)cc1OC` [CHEMBL565580], the IC50 on UT receptor [1] is 260 nM.
Turning to `COc1ccc([C@@H](CCCNS(=O)(=O)c2cccs2)N2C(=O)c3cccc(N4CCNCC4)c3C2=O)cc1OC` [CHEMBL566366], the IC50 at UT receptor [1] was 500 nM.
Regarding `CCN1CCN(c2cccc3c2C(=O)N([C@H](CCCNS(=O)(=O)c2cccs2)c2ccc(OC)c(OC)c2)C3=O)CC1` [CHEMBL566433], the IC50 at UT receptor [1] was 150 nM.
Consider `COc1ccc(-c2ccc(C(=O)NC(CCN(C)C)c3ccc4ccccc4c3)cc2)cc1` (centres unmarked) [CHEMBL578654], for which the EC50 on UT receptor [2] was 105 nM.
`CN(C)CCC(NC(=O)c1ccc(-c2ccc3ccccc3c2)cc1)c1ccc2ccccc2c1` (centres unmarked) [CHEMBL578853]: the EC50 on UT receptor [2] was 525 nM.
In the case of `CN(C)CCC(NC(=O)c1cccc(-c2ccc(Cl)cc2)c1)c1ccc(Cl)cc1` (centres unmarked) [CHEMBL582835], the EC50 at UT receptor [2] is 437 nM.
As to `CN(C)CCC(NC(=O)c1ccc(-c2ccccc2)cc1)c1ccc(Cl)cc1` (centres unmarked) [CHEMBL583981], the concentration giving a half-maximal response (EC50) on UT receptor [2] is 77.6 nM.
Regarding `NCCCC[C@@H]1NC(=O)[C@H](Cc2c[nH]c3ccccc23)NC(=O)[C@H](CO)NC(=O)CNC(=O)[C@@H]2CCCN2C(=O)[C@H](Cc2ccc(O)cc2)NC1=O` [CHEMBL593612] (cyclo(GSWKYP)), the EC50 on UT receptor [2] was 8.51 nM.
For `NCCCC[C@@H]1NC(=O)[C@H](Cc2c[nH]c3ccccc23)NC(=O)[C@H](CO)NC(=O)CNC(=O)[C@@H]2CCCN2C(=O)[C@H](Cc2ccccc2)NC1=O` [CHEMBL593663] (cyclo(FPGSWK)), the EC50 on UT receptor [2] was 10.1 nM.
In the case of `NCCCC[C@@H]1NC(=O)[C@H](Cc2c[nH]c3ccccc23)NC(=O)[C@H](Cc2ccccc2)NC(=O)CNC(=O)[C@@H]2CCCN2C(=O)[C@H](Cc2ccc(O)cc2)NC1=O` [CHEMBL607809] (cyclo(FWKYPG)), the EC50 at UT receptor [2] is 6.94 nM.
Consider `NCCCC[C@@H]1NC(=O)[C@H](Cc2c[nH]c3ccccc23)NC(=O)[C@H](Cc2ccc(O)cc2)NC(=O)CNC(=O)[C@@H]2CCCN2C(=O)[C@H](Cc2ccc(O)cc2)NC1=O` [CHEMBL607810] (cyclo(GYWKYP)), for which the EC50 on UT receptor [2] was 12.6 nM.
`NCCCC[C@@H]1NC(=O)[C@H](Cc2c[nH]c3ccccc23)NC(=O)[C@H](Cc2ccccc2)NC(=O)CNC(=O)[C@@H]2CCCN2C(=O)[C@H](Cc2ccccc2)NC1=O` [CHEMBL607811] (cyclo(FPGFWK)): on UT receptor [2], the EC50 was 13.2 nM.
For the compound `NCCCC[C@@H]1NC(=O)[C@H](Cc2c[nH]c3ccccc23)NC(=O)[C@H](Cc2ccc(O)cc2)NC(=O)CNC(=O)[C@@H]2CCCN2C(=O)[C@H](Cc2ccccc2)NC1=O` [CHEMBL608097] (cyclo(FPGYWK)), on UT receptor [2], the EC50 was 75.7 nM.
Turning to `NCCCC[C@@H]1NC(=O)[C@H](Cc2c[nH]c3ccccc23)NC(=O)[C@H](Cc2ccccc2)NC(=O)CNC(=O)[C@@H]2CCCN2C(=O)[C@H](Cc2c[nH]c3ccccc23)NC1=O` [CHEMBL608098] (cyclo(FWKWPG)), at UT receptor [2], the EC50 is 20.6 nM.
For `NCCCC[C@@H]1NC(=O)[C@H](Cc2c[nH]c3ccccc23)NC(=O)[C@H](CO)NC(=O)CNC(=O)[C@@H]2CCCN2C(=O)[C@H](Cc2c[nH]c3ccccc23)NC1=O` [CHEMBL608099] (cyclo(GSWKWP)), the EC50 at UT receptor [2] was 16.7 nM.
For the compound `Cc1cc2c(cc1C)C(=O)OC(CCN(C)C)(c1ccc(Cl)c(Cl)c1)C2` (centres unmarked) [CHEMBL1171808], the EC50 at UT receptor [2] was 51.3 nM.
`Cc1cc2c(cc1C)CC(CCN(C)C)(c1ccc3ccccc3c1)OC2` (centres unmarked) [CHEMBL1172223]: the half-maximal effective concentration (EC50) on UT receptor [2] was 263 nM.
In the case of `CN(C)CCC1(c2ccc(Cl)c(Cl)c2)Cc2ccccc2C(=O)O1` (centres unmarked) [CHEMBL1172763], the EC50 at UT receptor [2] is 676 nM.
For the compound `C=CCN(CC=C)c1ccc2c(c1)CC(CCN(C)C)(c1ccc(Cl)cc1)OC2=O` (centres unmarked) [CHEMBL1173081], at UT receptor [2], the EC50 is 724 nM.
As for `CN(C)CCC1(c2ccc(Cl)cc2)Cc2ccccc2CO1` (centres unmarked) [CHEMBL1173172], at UT receptor [2], the EC50 was 501 nM.
As for `Cc1cc2c(cc1C)C(=O)OC(CCN(C)C)(c1ccc3ccccc3c1)C2` (centres unmarked) [CHEMBL1173399], the EC50 at UT receptor [2] was 148 nM.
Turning to `Cc1cc2c(cc1C)CC(CCN(C)C)(c1ccc(Cl)cc1)OC2` (centres unmarked) [CHEMBL1173492], the EC50 at UT receptor [2] is 692 nM.
Consider `CSCC[C@H](NC(=O)CNC(=O)[C@@H](NC(=O)CNC(=O)[C@@H](NC(=O)[C@H](NC(=O)[C@H](CC(N)=O)NC(=O)[C@H](CCCNC(=N)N)NC(=O)[C@H](Cc1ccccc1)NC(=O)[C@@H](N)CO)C(C)(C)C)C(C)C)[C@@H](C)O)C(=O)N[C@@H](CCCCN)C(=O)N[C@@H](CCCCN)C(=O)N[C@H](C(=O)N[C@@H](CO)C(=O)N[C@@H](Cc1ccccc1)C(=O)N[C@@H](CCC(N)=O)C(=O)N[C@@H](CCCNC(=N)N)C(=O)N[C@@H](C)C(=O)N[C@@H](CCCCN)C(=O)N[C@@H](CO)C(=O)O)[C@@H](C)O` [CHEMBL1627325] (H-SFRN[dTle]VGTGMKKTSFQRAKS-OH), for which the EC50 at UT receptor [2] is 3.47 nM.
In the case of `CC(C)[C@H](NC(=O)[C@H](CS)NC(=O)[C@H](Cc1ccc(O)cc1)NC(=O)[C@H](CCCCN)NC(=O)[C@H](Cc1c[nH]c2ccccc12)NC(=O)[C@H](Cc1ccccc1)NC(=O)[C@H](C)NC(=O)[C@H](CC(=O)O)NC(=O)[C@H]1CCCN1C(=O)[C@@H](NC(=O)[C@@H](N)CCC(=O)O)[C@@H](C)O)C(=O)O` [CHEMBL2372895] (H-ET[dP]DAFWKYCV-OH), the EC50 at UT receptor [2] was 233 nM.
For `CC(C)[C@H](NC(=O)[C@H](CS)NC(=O)[C@H](Cc1ccc(O)cc1)NC(=O)[C@H](CCCCN)NC(=O)[C@H](Cc1c[nH]c2ccccc12)NC(=O)[C@H](Cc1ccccc1)NC(=O)[C@H](CS)NC(=O)[C@H](C)NC(=O)[C@H]1CCCN1C(=O)[C@@H](NC(=O)[C@@H](N)CCC(=O)O)[C@@H](C)O)C(=O)O` [CHEMBL2372896], at UT receptor [2], the EC50 was 2.7 nM.
As to `CC(C)[C@H](NC(=O)[C@H](CS)NC(=O)[C@H](Cc1ccc(O)cc1)NC(=O)[C@H](CCCCN)NC(=O)[C@H](Cc1c[nH]c2ccccc12)NC(=O)[C@H](Cc1ccccc1)NC(=O)[C@H](CS)NC(=O)[C@H](CC(=O)O)NC(=O)[C@H](C)NC(=O)[C@@H](NC(=O)[C@@H](N)CCC(=O)O)[C@@H](C)O)C(=O)O` [CHEMBL2372897] (H-ETADCFWKYCV-OH), the EC50 on UT receptor [2] was 1.9 nM.
For `CC(C)[C@H](NC(=O)[C@H](CS)NC(=O)[C@H](Cc1ccc(O)cc1)NC(=O)[C@H](CCCCN)NC(=O)[C@H](Cc1c[nH]c2ccccc12)NC(=O)[C@H](Cc1ccccc1)NC(=O)[C@H](CS)NC(=O)[C@H](CC(=O)O)NC(=O)[C@H]1CCCN1C(=O)[C@@H](NC(=O)[C@H](C)N)[C@@H](C)O)C(=O)O` [CHEMBL2372899] (H-AT[dP]DCFWKYCV-OH), the EC50 on UT receptor [2] was 1.8 nM.
On to `CC(C)[C@H](NC(=O)[C@H](CS)NC(=O)[C@H](Cc1ccc(O)cc1)NC(=O)[C@H](CCCCN)NC(=O)[C@H](Cc1c[nH]c2ccccc12)NC(=O)[C@H](C)NC(=O)[C@H](CS)NC(=O)[C@H](CC(=O)O)NC(=O)[C@H]1CCCN1C(=O)[C@@H](NC(=O)[C@@H](N)CCC(=O)O)[C@@H](C)O)C(=O)O` [CHEMBL2372901] (H-ET[dP]DCAWKYCV-OH), for which the EC50 on UT receptor [2] is 5.7 nM.
As for `CC(C)[C@H](NC(=O)[C@H](CS)NC(=O)[C@H](Cc1ccc(O)cc1)NC(=O)[C@H](CCCCN)NC(=O)[C@H](Cc1c[nH]c2ccccc12)NC(=O)[C@H](Cc1ccccc1)NC(=O)[C@H](CS)NC(=O)[C@H](CC(=O)O)NC(=O)[C@H]1CCCN1C(=O)[C@H](C)NC(=O)[C@@H](N)CCC(=O)O)C(=O)O` [CHEMBL2372902] (H-EA[dP]DCFWKYCV-OH), the EC50 at UT receptor [2] is 3.3 nM.
For `CC(C)[C@H](NC(=O)[C@H](CS)NC(=O)[C@H](C)NC(=O)[C@H](CCCCN)NC(=O)[C@H](Cc1c[nH]c2ccccc12)NC(=O)[C@H](Cc1ccccc1)NC(=O)[C@H](CS)NC(=O)[C@H](CC(=O)O)NC(=O)[C@H]1CCCN1C(=O)[C@@H](NC(=O)[C@@H](N)CCC(=O)O)[C@@H](C)O)C(=O)O` [CHEMBL2372903] (H-ET[dP]DCFWKACV-OH), the EC50 at UT receptor [2] is 193 nM.
As for `C[C@H](NC(=O)[C@H](CS)NC(=O)[C@H](Cc1ccc(O)cc1)NC(=O)[C@H](CCCCN)NC(=O)[C@H](Cc1c[nH]c2ccccc12)NC(=O)[C@H](Cc1ccccc1)NC(=O)[C@H](CS)NC(=O)[C@H](CC(=O)O)NC(=O)[C@H]1CCCN1C(=O)[C@@H](NC(=O)[C@@H](N)CCC(=O)O)[C@@H](C)O)C(=O)O` [CHEMBL2372907] (H-ET[dP]DCFWKYCA-OH), the EC50 at UT receptor [2] was 3.2 nM.
Consider `COc1ccc(/C=C/C2=NN(CCCCN)C(=O)N(Cc3ccc(-c4ccccc4)cc3)c3ccccc32)cc1` [CHEMBL4071437], for which, on UT receptor [2], the EC50 is 7.08 nM and 8.51 nM.
Consider `NCCCN1N=C(CCc2nc3ccccc3s2)c2ccccc2N(Cc2ccc3ccccc3c2)C1=O` [CHEMBL4076150], for which the EC50 at UT receptor [2] is 6.17 nM and 10.7 nM.
Turning to `CC(C)[C@H](NC(=O)[C@@H]1CSSC[C@H](NC(=O)[C@@H](N)CC(=O)O)C(=O)N[C@@H](Cc2ccc(I)cc2)C(=O)N[C@@H](Cc2c[nH]c3ccccc23)C(=O)N[C@@H](CCCCN)C(=O)N[C@@H](Cc2ccc(O)cc2)C(=O)N1)C(=O)O` [CHEMBL4205274] (H-DC[Phe(4-I)]WKYCV-OH; disulfide 2-7), the half-maximal effective concentration (EC50) at UT receptor [2] was 191 nM.
